Experimental findings from US20220174947A1, “ANTIMICROBIAL MIXTURE CONTAINING 4-(3-ETHOXY-4-HYDROXYPHENYL)BUTAN-2-ONE AND AN ALCOHOL COMPOUND, AND COSMETIC COMPOSITION CONTAINING SAME” (L'OREAL, priority 2018, published 2022) are described below.

The test system of experiment [1] is Pseudomonas aeruginosa ATCC 9027. In words: Synergistic antimicrobial activity as MIC, 96-well microplate, optical density at 620 nm. The class given is cell-based. As to conditions: for % MIC of A alone: Pseudomonas aeruginosa, growth <= 25%. The source says: with: • MIC of A with B: minimum concentration of product A in the combination A+B which makes it possible to obtain an inhibitory effect; • MIC of B with A: minimum concentration of product B in the combination A+B which makes it possible to obtain an inhibitory effect; • MIC of A: minimum inhibitory concentration of product A alone; • MIC of B: minimum inhibitory concentration of product B alone. This formula was described for the first time in the article by F. C. Kull, […], and R. L. Mayer, Applied Microbiology 9:538-541, 1961. […] When the FIC index value is less than or equal to 1, it is considered that the combination of test compounds has a synergistic effect. The microbial strain Pseudomonas aeruginosa ATCC 9027 and a double-concentration nutrient broth liquid culture medium were used. A 96-well microplate at an incubation temperature of 32.5° C. is used. […] For each compound: […] 50 μl of each of the daughter solutions obtained containing compound A and 50 μl of each of the daughter solutions obtained containing compound B are added to the microplate wells. 100 μl of Sabouraud liquid nutrient broth inoculated at double concentration with the strain Aspergillus niger are also added thereto. A positive microbial growth control was also prepared. […] An absorbance control was performed in parallel on compounds A and B alone. This control corresponds to 100 μl of double concentration sterile Sabouraud liquid nutrient broth+100 μl of double concentration compound A or B. […] The test as described above (tests, absorbance control and growth control) was performed again to test the combination A+B on the following strains Enterococcus faecalis, Staphylococcus aureus, Pseudomonas aeruginosa, Candida albicans, where appropriate.

For experiment [2], the system named is Staphylococcus aureus ATCC 6538. The experiment is described as above. The format is cell-based. As to conditions: for % MIC of A alone: Staphylococcus aureus, growth <= 25%. An excerpt: FIC Index=(MIC of A with B/MIC of A)+(MIC of B with A/MIC of B [Math. 1]
with: • MIC of A with B: minimum concentration of product A in the combination A+B which makes it possible to obtain an inhibitory effect; • MIC of B with A: minimum concentration of product B in the combination A+B which makes it possible to obtain an inhibitory effect; • MIC of A: minimum inhibitory concentration of product A alone; • MIC of B: minimum inhibitory concentration of product B alone. This formula was described for the first time in the article by F. C. Kull, P. C. Eisman, H. D. Sylwestrowka, and R. L. Mayer, Applied Microbiology 9:538-541, 1961.
The microbial strain Staphylococcus aureus ATCC 6538 and a double-concentration nutrient broth liquid culture medium were used.
A 96-well microplate at an incubation temperature of 32.5° C. is used.
The incubation time of the microplate is: • from 24 to 30 h under aerobic conditions for microbial Aspergillus niger ATCC 6275; • from 18 to 24 h under aerobic conditions for Candida albicans ATCC 10231, Pseudomonas aeruginosa ATCC 9027 and Staphylococcus aureus ATCC 6538; • from 24 to 48 h under aerobic conditions for Enterococcus faecalis ATCC 33186.
For each compound: A=4-(3-ethoxy-4-hydroxyphenyl) butan-2-one compound B=alcohol compound A 10% (weight/volume) stock solution was prepared by mixing 1 g of compound in 9 ml of aqueous 1% agar solution. Successive dilutions were made with the 1% agar solution.
50 μl of each of the daughter solutions obtained containing compound A or B are added to the microplate wells. 100 μl of Sabouraud liquid nutrient broth inoculated at double concentration with the Aspergillus niger strain and 50 μl of aqueous 1% agar solution are also added thereto.
50 μl of each of the daughter solutions obtained containing compound A and 50 μl of each of the daughter solutions obtained containing compound B are added to the microplate wells. 100 μl of Sabouraud liquid nutrient broth inoculated at double concentration with the strain Aspergillus niger are also added thereto.
A positive microbial growth control was also prepared. The positive microbial growth control corresponds to a mixture of 100 μl of aqueous 1% agar solution with 100 μl of Sabouraud liquid nutrient broth inoculated at double concentration with the strain Aspergillus niger in the absence of compounds A and B.
An absorbance control was performed in parallel on compounds A and B alone. This control corresponds to 100 μl of double concentration sterile Sabouraud liquid nutrient broth+100 μl of double concentration compound A or B.
In the three cases (absorbance control, growth control and test), the final volume present in each of the microplate wells is 200 μl.
The test as described above (tests, absorbance control and growth control) was performed again to test the combination A+B on the following strains Enterococcus faecalis, Staphylococcus aureus, Pseudomonas aeruginosa, Candida albicans, where appropriate.

SMILES strings stand for the structures.

For the molecule `CCOc1cc(CCC(C)=O)ccc1O` [A, 4-(3-ethoxy-4-hydroxyphenyl)butan-2-one], the microbial growth percentage in experiment [1] (0.0625 A, 0 B4 weight %) was determined as 63%; in experiment [1] (0.0625 A, 0 B6 weight %), 80%; in experiment [1] (0.125 A, 0 B4 weight %), 60%; in experiment [1] (0.125 A, 0 B6 weight %), 63%; in experiment [1] (0.25 A, 0 B4 weight %), 64%; in experiment [1] (0.25 A, 0 B6 weight %), 56%. Also, the microbial growth percentage is 62% in experiment [1] (0.5 A, 0 B4 weight %); 61% in experiment [1] (0.5 A, 0 B6 weight %); 7% in experiment [1] (1 A, 0 B4 weight %); −17% in experiment [1] (1 A, 0 B6 weight %); 52% in experiment [2] (0.0625 A, 0 B2 weight %); 65% in experiment [2] (0.0625 A, 0 B6 weight %). Besides, the microbial growth percentage in experiment [2] (0.125 A, 0 B2 weight %) is 49%; in experiment [2] (0.125 A, 0 B6 weight %), 75%; in experiment [2] (0.25 A, 0 B2 weight %) it was 52%; in experiment [2] (0.25 A, 0 B6 weight %), 79%; in experiment [2] (0.5 A, 0 B2 weight %), 75%; in experiment [2] (0.5 A, 0 B6 weight %), 24%. The microbial growth percentage in experiment [2] (1 A, 0 B2 weight %) came out at 2%; in experiment [2] (1 A, 0 B6 weight %), 5%. Moreover, the “% MIC of A alone” value in experiment [1] (Example 4), in experiment [1] (Example 6), in experiment [2] (Example 2) and in experiment [2] (Example 6) was 1% each time.
